US6465476B1, “Immuno-modulator exhibiting antimicrobial and anti-mycrobacterial activities, method for producing the same and pharmaceutical preparation” (priority 1997, dated 2002)
Read-outs that look alike come from different tables or passages of the source.

How the values were obtained:
[1] = test system: antibody-forming cells (AFC) in the spleens; assay: Antibody-forming cells in the spleen, immunodeficiency caused by irradiation (Jeme-Nordin's procedure); format: in vivo, mice F1 (CBA×C57BL/6); settings: irradiated mice 4 Gy
Experimental: Determination of immunotropic activity of isophonum was carried out. Immunotropic activity of isophonum was determined on a model of immunodeficiency caused by irradiation. To create an immunodeficient state the mice F1 (CBA×C57BL/6) were irradiated with gamma-rays on a radioterapeutic apparatus in a dose of 4 Gy (Gy is the irradiation unit gray) at an irradiation dose power of 0.55 Gr/min. The number of antibody-forming cells (AFC) in the spleens was calculated by Jeme-Nordin's procedure. Isophonum and diuciphonum were introduced per os over a wide range of doses. The investigation results are represented in Table 1.

[2] = test system: human mononucleator cells (T-lymphocytes); assay: Proliferation of T-lymphocytes in cell culture in vitro (3H-thymidine); format: cell-based
Experimental: The influence of the test compound on the proliferation of T-lymphocytes was studied on a model in vitro. To this end human mononucleator cells were preliminarily incubated during three hours in the presence of different concentrations of each test substance. Each test substance was studied over a wide range of its concentrations, that is from […]. As a negative control there was added a physiological 0.9 percent solution of NaCl. The results of the influence of novel compoubds on the intensity of proliferation of human lymphocytes in the cell culture in vitro are represented in Table 3.

[3] = test system: agent of leprosy; assay: Example 1, patient X, border-line tuberculoid leprosy; format: in vivo, human; parameters: histological index: scale not given here; Leucocytes / T-lymphocytes: unit not given here
Description: The patient X was admitted to a clinic with a diagnosis “border-line tuberculoid leprosy”. They had been considering themself ill for two years. They supposed that they had been infected in Africa where they had worked 8 years ago and used to receive vegetables from lepers. On the skin of the back, on the skin of the lateral abdiminal surfaces, on the left hip and shin, the left temple area of the head there were yellowish-reddish papules with a rust-coloured hue and sized 1.5 times 2 cm to 4 times 6 cm with no sensitivity in ther center. Disorder of sensitivity was noted along the length of peroneal and elbow nerves. The agent of leprosy was neither detected in the scrape from the nasal mucosa nor in the lymph on the bacterioscopic investigation. […] In the surface layers of derma there were multiple infiltrates and in the deeper layers of the skin there were focal and strand infiltrates. The histological index was equal to 1.1. The patient was prescribed a treatment in the form of isophonum to be taken internally 0.2 g each time twice a day. After 3.5 months all the elements (plaques) on the skin completely resolved and were replaced by hyperpigmented spots which after 4 months completely gained the colour of a normal skin. […] The patient was not hospitalyzed and received home treatment without interrupting their work. […] The histological index equaled 0. When histological investigation was repeated after 7 months with the purpose of transfering the patient under dispensary observation, the agent of leprosy was not detected either, in the surface layer of the derma were noted some small infiltrates out of lymphocytes with epithelioid cells in the form of accumulations.
In deeper layers of the skin there were small infiltrates around the blood vessels. It was decided to prolong the treatment of the patient for 6 months by administering isophonum internally in combination with diuciphonum.

[4] = Example 2, patient D., bronchiectatic disease; format: in vivo, human; settings: daily dose 400 mg
Experimental: The patient was admitted to a clinic with a diagnosis “bronchiectatic disease”. Concomitant diseases were chronic tonsillitis, diffuse enlargement of thyroid approximately of the first or the second degree.
According to the protocol of clinical tests the patient was ordered the intake of isophonum for the periode of 30 days in a daily dose of 400 mg. On the 14th or 15th day of intake of the preparation the morning sputum discharge considerably diminished in quantity and changed in character from pussy to mucous, the cough ceased and the patient's general state of health and mood improved.

[5] = Solubility; format: physicochemical
Experimental: It is soluble in dimethylformamide, dimethylsulfoxide, deluted acids and alkalies; f. p.=255-256° C. The structure of matter is confirmed by the data of PMR-spectroskopy.

[6] = Storage stability; format: physicochemical
Description: More precisely, isophonum is produced by boiling equimolecular amounts of isonicotinic acid hydrazide and 6-methyluracyl-5-sulfochloride in anhydrous acetonitrile. The samples of isophonum maintain their properties during the period of time of 3 years.

[7] = test system: agent of leprosy (mycobacteria of leprosy)
[8] = leprosy patients, after one month, 0.6 g daily
[9] = leprosy patients, after three months, 0.6 g daily
[10] = leprosy patients, before treatment

Structure (SMILES): Cc1[nH]c(=O)[nH]c(=O)c1S(=O)(=O)NNC(=O)c1ccncc1.O [Isophonum, N-(6-methyl-2,4-dioxo-1,2,3,4-tetrahydro-5-pyrimidinsulfon)-N′-isonicotinoylhydrazide hydrate]
- AFC-number in the spleen ([1]; 10 μg per mouse per os): 1013 ± 126
- Immune response stimulation index ([1]; 10 μg per mouse per os): 3.63 ± 0.57
- AFC-number in the spleen ([1]; 100 μg per mouse per os): 1173 ± 125
- Immune response stimulation index ([1]; 100 μg per mouse per os): 4.28 ± 0.8
- AFC-number in the spleen ([1]; 1000 μg per mouse per os): 1216 ± 124
- Immune response stimulation index ([1]; 1000 μg per mouse per os): 4.46 ± 0.9
- Intensity of involvement of 3H-thymidine in DNA of cultivated cells, PHA-activated ([2]; 0.01 μg/ml): 19995 impulse per minute
- Intensity of involvement of 3H-thymidine in DNA of cultivated cells, Spontaneous ([2]; 0.01 μg/ml): 901 impulse per minute
- Intensity of involvement of 3H-thymidine in DNA of cultivated cells, PHA-activated ([2]; 0.03 μg/ml): 24736 impulse per minute
- Intensity of involvement of 3H-thymidine in DNA of cultivated cells, Spontaneous ([2]; 0.03 μg/ml): 1152 impulse per minute
- Intensity of involvement of 3H-thymidine in DNA of cultivated cells, PHA-activated ([2]; 0.1 μg/ml): 37890 impulse per minute
- Intensity of involvement of 3H-thymidine in DNA of cultivated cells, Spontaneous ([2]; 0.1 μg/ml): 1818 impulse per minute
- Intensity of involvement of 3H-thymidine in DNA of cultivated cells, PHA-activated ([2]; 1 μg/ml): 25455 impulse per minute
- Intensity of involvement of 3H-thymidine in DNA of cultivated cells, Spontaneous ([2]; 1 μg/ml): 1272 impulse per minute
- Intensity of involvement of 3H-thymidine in DNA of cultivated cells, PHA-activated ([2]; 5 μg/ml): 20120 impulse per minute
- Intensity of involvement of 3H-thymidine in DNA of cultivated cells, Spontaneous ([2]; 5 μg/ml): 871 impulse per minute
- optimal concentration ([2]; proliferation of T-cells): 0.1 µg/mL
- mitogenetic activity ([2]; spontaneous proliferation): possesses the proper mitogenetic activitiy of its own
- time after which all the elements (plaques) on the skin completely resolved ([3]; 0.2 g twice a day): 3.5 months
- histological index ([3]; 3 months later, 0.2 g twice a day): 0
- histological index ([3]; before treatment): 1.1
- B-lymphocytes, % ([3]; day 0 (before treatment)): 12%
- Leucocytes ([3]; day 0 (before treatment)): 6.1
- Lymphocytes, % ([3]; day 0 (before treatment)): 18%
- T-helpers, % ([3]; day 0 (before treatment)): 50%
- T-lymphocytes ([3]; day 0 (before treatment)): 57
- T-suppressors ([3]; day 0 (before treatment)): 4
- B-lymphocytes, % ([3]; day 180, 0.2 g twice a day): 17%
- Leucocytes ([3]; day 180, 0.2 g twice a day): 6.8
- Lymphocytes, % ([3]; day 180, 0.2 g twice a day): 30%
- T-helpers, % ([3]; day 180, 0.2 g twice a day): 63%
- T-lymphocytes ([3]; day 180, 0.2 g twice a day): 80
- T-suppressors ([3]; day 180, 0.2 g twice a day): 27
- Phagocytosis ([3]; first column (no day head; presumably day 0)): 30
- Phagocytosis ([3]; second column (no day head; presumably day 180)): 5
- day of considerable improvement of clinical status and general blood analysis [4]: 20 days
- day of considerable improvement of immune status parameters [4]: 31 days
- solubility in dimethylformamide, dimethylsulfoxide, deluted acids and alkalies [5]: soluble
- solubility in water or usual organic solvents [5]: difficult to dissolve
- period of time during which samples maintain their properties [6]: 3 years
- shortening of the length of stationary treatment of the leprous patients ([7]; human, in vivo): two-fold
- tolerability, side effects ([7]; human, in vivo): well tolerable, has no side effects
- time after which the agent of leprosy disappeared in scrapes of nasal mucosa ([7]; leprosy patients, 0.6 g daily): 3 months
- B-lymphocytes [7, 8]: 10.0 ± 0.2
- T-helpers [7, 8]: 28.2 ± 0.3
- T-lymphocytes [7, 8]: 43.4 ± 0.7
- T-suppressors [7, 8]: 20.0 ± 0.4
- Th/Ts (immunoregulatory index) [7, 8]: 1.4
- B-lymphocytes [7, 9]: 11.4 ± 0.4
- T-helpers [7, 9]: 48.4 ± 1.2
- T-lymphocytes [7, 9]: 60.2 ± 0.9
- T-suppressors [7, 9]: 21.2 ± 0.4
- Th/Ts (immunoregulatory index) [7, 9]: 2.3 ± 0.1
- B-lymphocytes [7, 10]: 8.4 ± 0.2
- T-helpers [7, 10]: 20.2 ± 0.2
- T-lymphocytes [7, 10]: 28.6 ± 0.1
- T-suppressors [7, 10]: 20.4 ± 0.3
- Th/Ts (immunoregulatory index) [7, 10]: 1.0
